Where a name gives a salt, the structure may show the parent alone.
Key:
[1] = test system: human A375 melanoma cells; assay: Combination with a VEGF-R protein tyrosin kinase inhibitor, A375 melanoma in nude mice; assay type: in vivo; details: treated in a similar way (same doses) alone or combined
[2] = test system: human MDA-MB-435 breast tumors; assay: Combination with a VEGF-R protein tyrosin kinase inhibitor, MDA-MB-435 breast tumors in nude mice; assay type: in vivo; details: 2 weeks, Compound C HCl 2.5 mg/kg i.v. 5×/week, phthalazine succinate 100 mg/kg p.o. 5×/week, or both
Protocol: (§1) Antitumor activity is expressed as T/C% (mean increase in tumor volumes of treated animals divided by the mean increase of tumor volumes of control animals multiplied by 100).
Nude mice transplanted with human MDA-MB-435 breast tumors are treated for 2 weeks with a VEGF-R protein tyrosin kinase inhibitor, e.g. 1-(4-chloroanilino)-4-(4-pyridylmethyl)phthalazine succinate, at a dose of 100 mg/kg p.o. 5×/week, a S1P receptor agonist, e.g. Compound C (hydrochloride salt), at a dose of 2.5 mg/kg i.v. 5×/week, or a combination of both. Antitumor is expressed as T/C% as indicated above.

[3] = test system: human A375 melanoma cells; assay: In vivo antitumor activity, A375 melanoma transplanted into BALB/c-nu/nu mice
Text: as §1
Aliquots of cancer cells (1×10^7), e.g. human A375 melanoma cells, are transplanted into BALB/c-nu/nu mice. When the tumors have reached ca. 10×10 mm in size, the animals are assigned randomly to four subgroups and the treatment with a compound of formula I is initiated. Animals are sacrificed after 2 week treatment, at which times tumors and tissues are harvested and prepared for morphological and molecular analysis. The size of the tumors is determined with a caliper.

HUVEC [4] = assay: S1P-mediated HUVEC tube formation assay; assay type: cell-based, human; details: treatment alone; branching points in 3 independent fields at 4× magnification
Protocol: For the tube formation assay, HUVEC from passage 2-8 are used and are never greater than 70% confluent before harvesting. Cells are prepared for the assay by washing with Herpes Balanced Saline Solution (HBSS from Clonetics) and then trypsinizing with Trypsin/EDTA (0.25 mg/ml, from Clonetics). After approximately 90% of the cells have lifted off the plate, an equal volume of Trypsin Neutralizing Solution (TNS from Clonetics) is added and the cells are collected into a conical tube containing at least 10 ml of EBM-2 (Clonetics)+0.1% BSA (Sigma) media Cells are centrifuged at 1000 rpm for 5 minutes and the supematant is removed and replaced with 5 ml of fresh EBM-2+0.1% BSA. Cells are counted using a hemacytometer and the volume of the cell suspension is adjusted to achieve a concentration of 500,000 cells/ml. Conical tubes are prepared with test compounds at 100 nM, and pertussin toxin (PTx) at 10 ng/ml in each, then 1 ml of the cell suspension is added to each tube. Tubes are then incubated for ½ hour at 37° C., 5% CO2. The migration assay is performed using Fluoro-Blok 24-Multiwell insert Plates coated with fibronectin (8 μm pore size, Falcon #351147) instead of the individual inserts in a 24-well plate. Cells and test compounds are prepared and pre-incubated as described above, then 100 μl is added to each approriate well in the Insert Plate. 300 μl of the EBM-2+2% charcoastripped media without S1P is added to the bottoms of the wells marked for no stimulation (−), and 300 μl of the media containing S1P (500 nM) is added to the bottoms of the wells marked for stimulation (+). The plate is then incubated for 4 hours at 37° C., 5% CO2. […]
After incubation, the plate is read on a Cytofluor II at an excitation of 485 nm and emission of 530 nm. The Fluoro-Blok coating in the inserts allows only the cells that have migrated to the bottom to be counted. […]
Tube formation is quantitated by counting the number of branching points (two independent cords connecting) in 3 independent fields at 4× magnification.

tissue factor = assay: Clotting assay, tissue factor activity on HUVEC; assay type: cell-based, human; details: compound alone or in combinations, 0.5-2 μM, 4 hours
Protocol: (§2) Human umbilical vein endothelial cells (HUVEC) are cultured at 37° C. and 5% CO2 in medium M199 supplemented with 20% SCS (HyClone, Logan, Utah), 1 U/ml heparin, 50 μg/ml ECGS, 2 mM glutamine, 100 U/ml penicillin and 0.1 mg/ml streptomycin. Cells are used for experiments up to passage number 5. Short-starved HUVEC are obtained by starving with 1% SCS-containing M199 for 5 h. Recombinant human VEGF165 is obtained from PromoCell (Heidelberg, Germany). Phospho-specific ERK½, p3B kinase polyclonal antibodies, nonphospho ERK½ antibodies and LumiGLO chemiluminescent reagent are from New England BioLabs (Beverly, Mass.), polyclonal IKB antibodies from Santa Cruz Biotechnology (Santa Cruz, Calif.). Peroxidase-conjugated donkey anti-rabbit immunoglobulin G (IgG) and sheep anti-mouse IgG are purchased from Amersham LIFE SCIENCE (Amersham Place, England). lmmobilon-P transfer membranes are products of Millipore (Bedford, Mass.). S is obtained from Sigma Chemical Co.; S1P is from Biomol. Compound A-phosphate stock solution is prepared by the following protocol. Compound A-phosphate is dissolved in methanol tracing with concentrated HCl (0.5 mg Compound A-phosphate in 500 μl of methanol plus 2 μl of HCl). Solvent from the resulting solution is evaporated under vacuum and the residue obtained is redissolved (variant 1) in 0.1% of defatted BSA solution in sterile deionized water (500 μl) or (variant 2) in 0.5% Triton X-100 in deionized water. The resulting stock solutions (2.5 mM) are sonicated and stored at 4° C.
Cells are seeded in 6-well plates at 80-90% confluency and grown overnight. Cells are scraped from the plates and analyzed for tissue factor activity according to the method as described in Clauss, M., J. Biol. Chem. 271,17629-17634 (1996), Mechtcheriakova, D., Blood 93,3811-3823 (1999). Briefly, after induction for 4 hours with VEGF (1.5 nM), TNF-α (100 U/ml), S (0.5-2 μM), S1P (0.5-2 μM), Compound A (0.5-2 μM), and Compound A-phosphate (0.5-2 μM), cells are washed twice and then scraped in 1 ml clotting buffer (12 mM sodium acetate, 7 mM diethylbarbitate and 130 mM sodium chloride; pH 7.4). 50 μl of resuspended cells are mixed with 50 μl of citrated plasma, and clotting times are determined after recalcfication with 50 μl of 20 mM CaCl2 solution at 37° C. TF-equivalents are determined by using a standard curve obtained from rabbit brain thromboplastin.
An important characteristic feature of both classical inflammatory stimulus TNF-α and the main angiogenic growth factor VEGF on endothellal cells is their potency to upregulate tissue factor. Compound A, Compound A-phosphate, S or S1P are tested whether they also do induce tissue factor on HUVEC. […] The data obtained together indicate that Compound A, Compound A-phosphate, S and S1P mechanistically work distinctly to anglogenic VEGF and inflammatory TNF-α.

HUVEC [5] = assay: In vitro angiogenesis (tube formation) assay on Matrigel; assay type: cell-based, human; details: for effect on VEGF-triggered tube formation: high concentrations, 2-5 μM
Protocol: as §2
Morphogenesis of endothelial cells into capillary-like structures on Growth Factor Reduced Matrigel Matrix (BD Bioscience) is performed according to the manufacture procedure. Briefly, HUVEC are trypsinized, resuspended in serum-free Ml 99 medium containing soybean trypsin inhibitor (1 mg/ml, Sigma). After centrifugation cells are resuspended in serum-free medium at a density 0.5×10^5 cells/ml, and cell suspension is seeded in 96-well cell culture plates (Costar, Corning Incorporated) precoated with 50 μl of Matrigel in the absence or presence of various stimuli: VEGF at 1.5 nM, S1P at 0.1-2 μM, S at 0.5-2 μM, Compound A at 0.5-2 μM, and Compound A-phosphate at 0.1-2 μM. Eight hours later, cells on Matrigel are fixed with 3% formaldehyde in PBS and kept at 4° C. Results are quantitated from images made with a Nikon Diaphot microscope equipped with a cooled CCD camera (Kappa GmbH, Gleichen, Germany) by direct counting of branching points on two microscopic fields from each well done in duplicates.
The effect of Compound A and Compound A-phosphate on morphogenic differentiation of endothelial cells is determined using an in vitro angiogenesis assay on Matrigel. Endothelial cell morphogenesis is a complex process that requires cell-extracellular matrix interactions, followed by matrix remodelling, stimulated migration, cell-cell interactions, and perivascular proteolysis. […] This may be interpreted as a possible involvement of EDG-1 (S1P1) receptor-mediated signaling events in Compound A-phosphate-stimulated bioresponses (see e.g. FIG. 3). […] Importantly, high concentrations of S and Compound A (2-5 μM) inhibited VEGF-triggered tube formation.

ERK½ MAP kinases = assay: Western blot, activation of ERK½ MAP kinases in HUVEC; assay type: cell-based, human; details: endothelial cells, 5 minute to 60 minute treatment
Protocol: as §2
After various treatments, the cells are washed twice with cold PBS, lysed in 100 μl of Laemmli buffer, scraped and heated for 5 min at 95° C. Total cell lysates are separated by SDS-PAGE and transferred to Immobilon-P membrane. The membrane is blocked for 30 minutes with PBS containing 0.1% Tween-20 and 3% skim milk and incubated for 1 hour at RT with a primary antibody diluted in blocking buffer. The membrane obtained is washed three times for 5 minutes with PBS containing 0.1% Tween-20 and incubated with peroxidase-conjugated secondary antibody for 1 hour at RT. After a washing step, the membrane is incubated for 1 minute with ECL reagent and exposed to film as required. For reprobing with another antibody, the membrane is washed twice in PBS, stripped for 30 min at 55° C. with stripping buffer (62.5 mM Tris-HCL, pH 6.8, 2% SDS, 100 mM 2-mercaptoethanol) and washed three times for 5 minutes with PBS at RT. The membrane is stored wet wrapped in SaranWrap at 4° C. after each immunodetection.
Signal transduction via MAP idnases plays a key role in a variety of endothelial cell functions. Treatment of HUVEC with Compound A-phosphate at 0.5 μM may result in transient activation of ERK½ with a peak of phosphorylation/activation at 10 minutes and returning to baseline by 20 minutes (see e.g. FIG. 5). No activation of p38 kinase and JNK½ by Compound A-phosphate is detectable in HUVEC. […] To estimate the possible role of inflammatory/NFκB-dependent program in Compound A-phosphatestimulated bioresponses of endothelial cells, the membranes are reprobed with anti-IκB antibodies. IκB levels are not affected by Compound A-phosphate treatment.

For Clc1ccc(Nc2nnc(Cc3ccncc3)c3ccccc23)cc1.O=C(O)CCC(=O)O [1-(4-chloroanilino)-4-(4-pyridylmethyl)phthalazine succinate, reference compound], the T/C% [1] was 44% and the T/C% [2] was 91%.
For CCCCCCCOc1ccc(CCC(C)(N)CO)cc1 (stereo not shown) [Compound C, 2-amino-4-(4heptyloxyphenyl)-2-methyl-butanol], the “tumor growth vs saline control” value ([3]; hydrochloride salt form, 0.5 to 5 mg/kg, 2 week treatment) was “slows tumor growth”.
CCCCCCCOc1ccc(CCC(C)(N)CO)cc1 (stereo not shown) [Compound C—HCl, 2-amino-4-(4heptyloxyphenyl)-2-methyl-butanol] was tested, and the T/C% [1] was 35%, the T/C% [2] was 66% and the “final T/C value” ([3]; 2.5 mg/kg 5×/week) was 30%.
With CCCCCCCCCCCCC/C=C/[C@@H](O)[C@@H](N)COP(=O)(O)O [Compound S1P, sphingosine-1-phosphate, reference compound] the “Branching Points” value (HUVEC [4]) was 42 ± 13 and the tissue factor activity (tissue factor) was “none of these compounds alone or in combinations may elevate tissue factor activity”.
With CCCCCCCCCCCCC/C=C/[C@@H](O)[C@@H](N)CO [S, sphingosine, reference compound] the tissue factor activity (tissue factor) was “none of these compounds alone or in combinations may elevate tissue factor activity”, the “effect on the VEGF-induced tube formation” value (HUVEC [5]; 1 μM) was “without having an inhibitory effect” and the “effect on the ability of S1P and Compound A-phosphate to induce capillary-like structures” value (HUVEC [5]; 1 μM) was “attenuates”. The “potency to induce capillary-like structures” value (HUVEC [5]; 1 μM, compared with S1P) was “less potent than S1P”, the “effect on VEGF-triggered tube formation” value (HUVEC [5]) was “inhibited” and the “effect on VEGF-triggered tube formation” value (HUVEC [5]; listed as sphingosine) was “inhibits”. For the same compound, the MAP kinase activation (ERK½ MAP kinases) was “Neither Compound A nor S are able to induce MAP kinase activation”.
pertussis toxin [reference compound] was tested, and the “inhibition of Compound A-phosphate- and S1P-stimulated tube formation” value (HUVEC [5]; PTX 50 ng/ml) was “practically completely inhibited”.
